Data from ChEMBL document CHEMBL1201862, “PubChem BioAssay data set” (2004).
Active and inactive are the calls of the source.

Columns and labels:
[1] = biological target: T1, Luciferin 4-monooxygenase (Photinus pyralis, UniProt P08659); test: Counter Screen for Luciferase-based Assay Positives. [Related pubchem assays: 620, 618, 411 ]
HT-1080 = test: cytotoxicity in HT1080 fibrosarcoma cells, cell-based, fluorescence readout (AID 620); format: functional; conditions: Homo sapiens
[2] = biological target: T1, Luciferin 4-monooxygenase; test: firefly luciferase enzyme inhibitors, dose response, biochemical, luminescence (AID 1891)
[3] = Luminescence Cell-Based Dose Confirmation HTS to Identify Inhibitors of Platelet Dense Granule Release. [Related pubchem assays: 1663 (Primary HTS), 1678 (Summary of Project)]; format: functional
Caspase-3 = biological target: T2, Caspase-3 (Homo sapiens, UniProt P42574); test: SAR Analysis of small molecule inhibitors of Sentrin-specific proteases (SENPs) using a Caspase-3 Selectivity assay. [Related pubchem assays (depositor defined):AID2540, AID2599, AID434973, AID489001]; format: functional
T2 sequence (P42574 whole entry): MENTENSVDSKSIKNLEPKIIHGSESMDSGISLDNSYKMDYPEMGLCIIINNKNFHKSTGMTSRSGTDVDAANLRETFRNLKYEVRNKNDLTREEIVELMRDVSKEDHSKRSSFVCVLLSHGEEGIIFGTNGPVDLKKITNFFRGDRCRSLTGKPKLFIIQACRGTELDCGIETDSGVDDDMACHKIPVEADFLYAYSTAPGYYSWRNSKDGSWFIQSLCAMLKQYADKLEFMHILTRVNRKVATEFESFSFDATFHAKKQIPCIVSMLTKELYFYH

[4] = biological target: T3, Sentrin-specific protease 6 (Homo sapiens, UniProt Q9GZR1); test: SAR Analysis of small molecule inhibitors of Sentrin-specific protease 6 (SENP6) using a Luminescent assay. [Related pubchem assays (depositor defined):AID2582, AID2599]; format: functional
T3 sequence (Q9GZR1 whole entry): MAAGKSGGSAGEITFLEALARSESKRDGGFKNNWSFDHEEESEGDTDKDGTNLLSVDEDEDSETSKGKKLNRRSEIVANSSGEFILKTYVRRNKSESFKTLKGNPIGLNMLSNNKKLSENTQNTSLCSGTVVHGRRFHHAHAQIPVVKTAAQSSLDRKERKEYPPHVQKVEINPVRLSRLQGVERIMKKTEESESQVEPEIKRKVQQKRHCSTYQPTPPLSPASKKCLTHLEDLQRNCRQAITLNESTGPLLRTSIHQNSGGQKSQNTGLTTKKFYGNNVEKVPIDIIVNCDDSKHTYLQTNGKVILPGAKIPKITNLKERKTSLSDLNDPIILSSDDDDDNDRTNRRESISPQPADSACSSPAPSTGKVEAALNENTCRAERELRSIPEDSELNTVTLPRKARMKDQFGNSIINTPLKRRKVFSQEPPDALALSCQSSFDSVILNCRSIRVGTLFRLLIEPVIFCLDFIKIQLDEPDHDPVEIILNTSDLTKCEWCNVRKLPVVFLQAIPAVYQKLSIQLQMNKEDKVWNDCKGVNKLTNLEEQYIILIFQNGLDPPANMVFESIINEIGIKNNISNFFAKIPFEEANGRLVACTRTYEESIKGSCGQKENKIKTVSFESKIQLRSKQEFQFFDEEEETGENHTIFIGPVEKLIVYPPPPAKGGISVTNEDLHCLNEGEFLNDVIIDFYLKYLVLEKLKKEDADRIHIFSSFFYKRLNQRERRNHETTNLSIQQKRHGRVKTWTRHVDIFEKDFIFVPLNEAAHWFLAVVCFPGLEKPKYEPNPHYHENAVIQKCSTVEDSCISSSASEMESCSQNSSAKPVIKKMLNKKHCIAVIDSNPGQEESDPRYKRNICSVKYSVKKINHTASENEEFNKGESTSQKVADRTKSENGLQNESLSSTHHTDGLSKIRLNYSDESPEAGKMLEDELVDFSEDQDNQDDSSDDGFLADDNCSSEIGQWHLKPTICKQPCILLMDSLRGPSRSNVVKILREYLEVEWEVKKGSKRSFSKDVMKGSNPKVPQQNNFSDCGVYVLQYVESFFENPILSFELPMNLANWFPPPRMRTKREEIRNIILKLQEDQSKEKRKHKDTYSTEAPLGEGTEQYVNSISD

Estrogen receptor = biological target: T4, Estrogen receptor (Homo sapiens, UniProt P03372);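 note: potency for inhibiting coactivator peptide recruitment to the receptor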
T4 sequence (P03372 whole entry): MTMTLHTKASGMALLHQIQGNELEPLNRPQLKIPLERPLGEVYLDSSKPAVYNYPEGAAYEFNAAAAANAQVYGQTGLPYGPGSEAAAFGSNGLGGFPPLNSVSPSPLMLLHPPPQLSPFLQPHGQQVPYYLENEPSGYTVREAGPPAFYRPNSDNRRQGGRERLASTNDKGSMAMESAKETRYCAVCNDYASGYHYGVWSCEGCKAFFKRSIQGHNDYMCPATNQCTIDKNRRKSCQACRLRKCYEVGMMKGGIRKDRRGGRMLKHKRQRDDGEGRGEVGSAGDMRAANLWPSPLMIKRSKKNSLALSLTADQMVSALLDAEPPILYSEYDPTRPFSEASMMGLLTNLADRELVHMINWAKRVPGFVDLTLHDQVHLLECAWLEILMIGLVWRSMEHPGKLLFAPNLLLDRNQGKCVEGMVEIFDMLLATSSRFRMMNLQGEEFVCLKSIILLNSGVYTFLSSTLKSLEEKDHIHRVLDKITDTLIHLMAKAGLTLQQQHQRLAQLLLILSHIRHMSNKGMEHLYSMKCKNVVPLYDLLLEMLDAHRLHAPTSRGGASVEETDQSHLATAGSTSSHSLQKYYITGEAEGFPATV

[5] = biological target: T5, Sentrin-specific protease 7 (Homo sapiens, UniProt Q9BQF6); test: SENP7 protease inhibitors, SAR follow-up, biochemical, luminescence (AID 504497); format: functional
T5 sequence (Q9BQF6 whole entry): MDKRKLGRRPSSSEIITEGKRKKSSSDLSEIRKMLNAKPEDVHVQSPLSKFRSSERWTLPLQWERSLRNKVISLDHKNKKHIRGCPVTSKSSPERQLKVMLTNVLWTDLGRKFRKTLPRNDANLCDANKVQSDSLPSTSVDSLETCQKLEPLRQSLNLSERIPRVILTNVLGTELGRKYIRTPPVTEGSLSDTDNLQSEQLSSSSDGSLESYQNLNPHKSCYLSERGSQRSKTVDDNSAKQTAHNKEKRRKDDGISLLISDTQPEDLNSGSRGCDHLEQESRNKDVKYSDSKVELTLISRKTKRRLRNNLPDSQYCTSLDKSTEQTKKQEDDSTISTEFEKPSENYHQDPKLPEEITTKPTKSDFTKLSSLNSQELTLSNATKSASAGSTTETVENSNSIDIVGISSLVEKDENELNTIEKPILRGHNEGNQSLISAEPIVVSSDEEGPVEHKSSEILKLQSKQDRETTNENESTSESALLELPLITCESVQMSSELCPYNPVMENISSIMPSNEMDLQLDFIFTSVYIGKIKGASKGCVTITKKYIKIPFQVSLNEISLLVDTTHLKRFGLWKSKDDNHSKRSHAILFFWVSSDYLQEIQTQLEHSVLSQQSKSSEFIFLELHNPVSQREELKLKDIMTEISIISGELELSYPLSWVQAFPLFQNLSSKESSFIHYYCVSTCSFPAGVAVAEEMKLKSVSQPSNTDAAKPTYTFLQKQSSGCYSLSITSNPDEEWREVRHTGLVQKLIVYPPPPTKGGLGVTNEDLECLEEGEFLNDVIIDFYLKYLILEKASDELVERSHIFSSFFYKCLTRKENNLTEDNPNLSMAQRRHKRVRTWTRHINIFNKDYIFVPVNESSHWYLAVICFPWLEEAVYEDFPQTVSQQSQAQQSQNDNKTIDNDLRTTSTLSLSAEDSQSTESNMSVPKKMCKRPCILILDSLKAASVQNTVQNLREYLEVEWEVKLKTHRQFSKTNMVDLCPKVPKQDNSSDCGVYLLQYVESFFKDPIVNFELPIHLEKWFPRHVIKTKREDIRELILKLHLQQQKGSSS

[6] = biological target: T6, Sentrin-specific protease 8 (Homo sapiens, UniProt Q96LD8); test: SENP8 protease inhibitors, SAR follow-up, biochemical, luminescence (AID 504501); format: functional
T6 sequence (Q96LD8 whole entry): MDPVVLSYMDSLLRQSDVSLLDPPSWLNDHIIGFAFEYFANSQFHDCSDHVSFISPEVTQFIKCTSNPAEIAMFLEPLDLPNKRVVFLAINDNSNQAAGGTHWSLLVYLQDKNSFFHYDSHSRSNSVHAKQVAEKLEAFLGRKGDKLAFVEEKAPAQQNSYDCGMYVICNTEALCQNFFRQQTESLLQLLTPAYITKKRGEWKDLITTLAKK

T1 sequence (P08659 whole entry): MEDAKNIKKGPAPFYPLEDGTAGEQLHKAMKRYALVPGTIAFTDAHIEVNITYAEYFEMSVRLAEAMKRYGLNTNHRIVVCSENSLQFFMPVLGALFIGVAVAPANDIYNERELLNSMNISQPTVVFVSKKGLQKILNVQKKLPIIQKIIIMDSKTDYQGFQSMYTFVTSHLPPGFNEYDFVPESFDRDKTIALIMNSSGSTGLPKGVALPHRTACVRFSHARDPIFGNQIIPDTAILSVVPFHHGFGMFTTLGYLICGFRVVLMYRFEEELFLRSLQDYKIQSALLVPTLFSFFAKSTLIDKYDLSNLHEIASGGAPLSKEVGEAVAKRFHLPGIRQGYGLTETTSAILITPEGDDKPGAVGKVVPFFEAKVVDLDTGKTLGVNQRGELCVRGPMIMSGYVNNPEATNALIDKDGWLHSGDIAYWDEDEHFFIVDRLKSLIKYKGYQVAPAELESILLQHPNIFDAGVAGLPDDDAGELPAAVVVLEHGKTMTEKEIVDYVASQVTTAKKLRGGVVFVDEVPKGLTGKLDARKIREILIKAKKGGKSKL

Compound | EC50 [1] | EC50 (HT-1080) | EC50 [2] | EC50 [3] | IC50 (Caspase-3) | IC50 [4] | IC50 (Estrogen receptor) | IC50 [5] | IC50 [6]
COC(=O)c1nn(-c2ccc(-c3ccccc3)cc2)cc1O | > 100 µM (not active) | > 50 µM (not active) | 1.93 µM (active) | 3.79 µM (active) |  |  |  |  | 
CC1CCc2c(sc(NC(=O)c3ccc(Cn4cc(Br)cn4)o3)c2C(N)=O)C1 (centres undefined) |  |  |  |  | > 99 µM (inactive) | > 99 µM (inactive) | > 50 µM (not active) | > 99 µM (inactive) | > 99 µM (inactive)
